Results taken from patent US20230172894A1, “COMBINATION TREATMENT FOR FUMARATE-RELATED DISEASES” (IMCYSE SA, priority 2020, published 2023).
Counter-ions that a name gives are not always drawn.

Tests used:
[1] = system: experimental auto-immune encephalomyelitis (EAE) development in mice; conditions: Example 1; for AUC (area under the curve) of EAE scores: day 7 to 28 scoring; for AUC (area under the curve) of EAE scores / end score (clinical EAE score 0-5) / MMS (mean maximal score): vs negative control; for AUC (area under the curve) of EAE scores / disease onset / end score (clinical EAE score 0-5) / MMS (mean maximal score): combination also vs each single treatment; for disease onset / end score (clinical EAE score 0-5): peptide 100 μg/Alum s.c. days −21, −14, −7, BG-12 100 mg/kg p.o. BID days 0 to 27; for disease onset: vs negative control (Saline/Vehicle)
Description: Example 1: Effect of the prophylactic administration of an immunogenic peptide comprising a MOG35-55 MHCII T cell epitope and a HCPYC oxidoreductase motif in combination with dimethyl fumarate (BG-12, […]™) on experimental auto-immune encephalomyelitis (EAE) development in mice.
The study used a total of 64 female C57BL/6 mice (Taconic Biosciences, 10 weeks old on Day 0). Mice were acclimated for 8 days prior to the first injection. Mice were assigned to groups in a balanced manner to achieve similar average weight across the groups at the start of the study.
Treatment 1 was administered once on each of the days indicated in Table 1, s.c., at a volume of 0.05 mL/site, each mouse receiving injection at two sites, for a total of 0.1 mL/mouse/dosing day, corresponding to 100 μg of peptide.
BG-12 was dosed at 100 mg/kg. All dosing was done at the same time (+/−1 hour) each dosing day. For the BID groups there were no less than 10 and no more than 14 hours between doses.
For Treatment 1, 0.9% NaCl solution was prepared at each dosing day. […] (SEQ ID NO: 185), comprising an oxidoreductase motif HCPYC (SEQ ID NO: 71), a linker GW, a murine Myelin Oligodendrocyte Glycoprotein (MOG35-55) MHCII T cell epitope […] (SEQ ID NO: 169) and a flanking sequence HLYR (SEQ ID NO: 186) (Smart Bioscience) was solubilized immediately before use. Lyophilized IMCY-0189 was thawed at room temperature for 10 minutes, resuspended in Na Acetate buffer 50 mM pH 5.4 and incubated at room temperature for 5 minutes. Reconstituted peptide was then mixed with Imject™ Alum Adjuvant before injection.
For Treatment 2, vehicle was 0.5% HPMC, 0.2% Tween 20, and 50 mM citrate buffer at pH 4. BG-12 (or […]™, from Santa Cruz Biotechnology, catalog number sc-239774) was prepared once a week. At each preparation the required amount of BG-12 was weighed out into a mortar and triturated with a pestle. Vehicle was then added in small increments and mixed until the final volume was reached. The material was then vortexed and sonicated in a water bath until a homogeneous suspension was obtained. Formulated BG-12 was stored at 4° C., stirring continuously.
EAE was induced in all mice as follows: • Day 0, Hour 0—Immunization with a peptide corresponding to the amino acids 35-55 of MOG (MOG35-55)/CFA • Day 0, Hour 2—Injection of pertussis toxin • Day 1, Hour 0-2nd injection of pertussis toxin (24 hours after initial immunization).
Mice were injected subcutaneously at two sites in the back with the emulsion component (containing MOG35-55) of Hooke Kit™ MOG35-55/CFA Emulsion PTX, catalog number EK-2110 (lot #127, Hooke Laboratories, Lawrence Mass.). One site of injection was in the area of upper back, approximately 1 cm caudal of the neck line. The second site was in the area of lower back, approximately 2 cm cranial of the base of the tail. The injection volume was 0.1 mL at each site. Each mouse received 200 μg of MOG35-55.
Within 2 hours of the injection of emulsion, and then again 24 hours after the injection of emulsion, the pertussis toxin component of the kit was administered intraperitoneally. The pertussis toxin (lot #1008, Hooke Laboratories) was administered at 100 ng/dose for both injections and the volume of each injection was 0.1 mL.
Animals were scored daily starting from Day 7 to the end of the study. Scoring was performed blind, by a person unaware of both treatment and of previous scores for each mouse. In-between scores were assigned when the clinical signs fell between two above defined scores.
AUC, MMS, inflammation and demyelination, and NF-L levels quantification data were analyzed by performing Ordinary one-way ANOVA. Adjustment for multiplicity was performed using Holm-Sidak's method. Significant differences are referred as follows: *p<0.05, **p<0.01, ***p<0.001, ****p<0.0001.
EAE development was evaluated by comparing clinical EAE readouts for all groups to the negative control (Saline/Vehicle) group.

[2] = system: experimental auto-immune encephalomyelitis (EAE) development in mice; experiment: Example 1 (repeated experiment): plasma neurofilament light (NF-L) levels in EAE mice, Simoa NF-light assay; type: in vivo, female C57BL/6 mice; conditions: Example 1 regimen repeated; Day 28 plasma; vs negative control
Procedure: On Day 28, blood was collected from all mice into tubes containing K2EDTA and mixed gently. Blood was then centrifuged at ˜10000 g for 5 minutes. Plasma was transferred into Eppendorf tubes and stored at −80° C. until shipment to Quanterix™. Plasma Neurofilament light (NF-L) protein levels were quantified using Simoa® NF-light Advantage kit, a digital immunoassay for the quantitative determination of NF-L in serum, plasma and CSF. The used antibodies (Uman Diagnostics, Umea Sweden) also cross react with murine, bovine and macaque NF-L epitopes and as such, this assay can be used for research with these species. All samples were tested in duplicate at a dilution factor of 40×.
Neurofilament light (NF-L) is a 68 kDa cytoskeletal filament protein that is expressed in neurons, as one of the major components of the neuronal cytoskeleton that provide structural support for the axon. Neurofilaments can be released following axonal damage or neuronal degeneration.

| Molecule | mice died in group ([1]; 16 mice per group) | AUC (area under the curve) of EAE scores [1] | disease onset [1] | end score (clinical EAE score 0-5) [1] | MMS (mean maximal score) [1] | plasma NF-L levels [2] | mice died due to severe EAE ([1]; 16 mice per group) |
| --- | --- | --- | --- | --- | --- | --- | --- |
| COC(=O)/C=C/C(=O)OC [BG-12, dimethyl fumarate, reference compound] | No mice died | statistically significant reduced | postponed disease onset | reduced end score | statistically significant reduced | – | – |
| HCPYCGWYRSPFSRVVHLYR [IMCY-0189] | 2 mice | statistically significant reduced | postponed disease onset | reduced end score | statistically significant reduced | reduced NF-L levels | 1 mouse |
